In publication PMC6017873 (Molecules : A Journal of Synthetic Chemistry and Natural …, 2018):

Legend:
HDAC1 = HDAC1 (Homo sapiens, UniProt Q13547); test: Selective in vitro HDAC activity assay, recombinant HDAC1; assay type: biochemical; settings: 100 µM
Procedure: (§1) (a) In vitro total HDAC activity was evaluated using K-562 nuclear extracts in the presence of various concentrations of eurochevalierine. (b) Selective in vitro HDAC activity assays were carried out using selected recombinant HDAC proteins in the presence of various concentrations of eurochevalierine. Results are reported as percent of DMSO vehicle control and expressed as the mean ± SD of three independent experiments. * and ** indicate p < 0.05 and p < 0.01 versus untreated cells, respectively.

HDAC2 = HDAC2 (Homo sapiens, UniProt Q92769); test: Selective in vitro HDAC activity assay, recombinant HDAC2; assay type: biochemical; settings: 100 µM
Procedure: as §1

HDAC3 = HDAC3 (Homo sapiens, UniProt O15379); test: Selective in vitro HDAC activity assay, recombinant HDAC3; assay type: biochemical; settings: 100 µM
Procedure: as §1

HDAC8 = molecular target: T1, HDAC8 (Homo sapiens, UniProt Q9BY41); test: Selective in vitro HDAC activity assay, recombinant HDAC8; assay type: biochemical; settings: 100 µM
T1 sequence (Q9BY41 1-377): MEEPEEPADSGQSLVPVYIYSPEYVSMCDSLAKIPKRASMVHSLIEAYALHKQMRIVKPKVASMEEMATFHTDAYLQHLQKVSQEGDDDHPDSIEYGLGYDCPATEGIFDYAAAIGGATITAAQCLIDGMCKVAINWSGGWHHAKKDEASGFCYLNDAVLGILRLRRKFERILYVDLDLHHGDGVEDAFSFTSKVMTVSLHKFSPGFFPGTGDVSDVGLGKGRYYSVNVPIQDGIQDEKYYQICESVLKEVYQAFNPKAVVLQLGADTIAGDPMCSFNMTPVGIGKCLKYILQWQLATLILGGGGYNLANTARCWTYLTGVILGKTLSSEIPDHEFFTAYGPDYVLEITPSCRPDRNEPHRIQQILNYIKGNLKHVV
Procedure: as §1

U-373 cells [1] = test: Sub-G1 fraction by PI flow cytometry, U-373; assay type: cell-based, human; settings: U-373, 50 µM, 72 h
Procedure: Figure 2 Effect of eurochevalierine on cell cycle distribution. Cells were treated with 50 µM eurochevalierine for 72 h and then stained with propidium iodide (PI), and DNA content was measured by flow cytometry. (a) Cell cycle distribution profile in A-549 cells. Results of three independent experiments are represented on the same graph. (b) Quantification of the number of cells in sub-G1 fraction as a percentage of the total cell population. Results are expressed as mean ± SD of at least three independent experiments.
Cells were collected, fixed, and stained with the APO AF TUNEL detection kit (BD, Erembodegem, Belgium) allowing analysis of both apoptosis and cell cycle at the same time. The experiment was conducted accordingly to the procedure of the manufacturer. Data were obtained through flow cytometry with a Cell Lab Quanta apparatus (Analis, Suarlee, Belgium).

B16-F10 cells = test: Sub-G1 fraction by PI flow cytometry, B16-F10; assay type: cell-based, murine; settings: B16-F10, 50 µM, 72 h
SK-MEL-28 cells = test: Acetylation of sirtuin targets by Western blot, SK-MEL-28; assay type: cell-based, human; settings: SK-MEL-28, 5 and 50 µM, 8 h
Procedure: (§2) Figure 5 Effect of eurochevalierine on the acetylation status of sirtuin targets. SK-MEL-28, U-373, and A-549 cells were treated with 5 and 50 µM eurochevalierine (EU) for 8 h. Acetylation of histone H4 (AcH4), histone H3 at lysine 56 (AcH3K56), and α-tubulin (Ac α-tubulin) was analyzed via Western blot. β-actin and histone H1 were used as loading controls for the analysis of total and acid extracts, respectively. SAHA (S, 1 µM) was used as a reference HDAC inhibitor. Blots are representative of three independent experiments.
(§3) Total proteins were extracted using the MPER® reagent (Thermo-scientific, Erembodegem-Aalst, Belgium) supplemented by 1× protease inhibitor cocktail (Complete EDTA-free, Roche, Prophac, Luxembourg, Luxembourg) according to manufacturer’s instructions. Histones were extracted as previously described. Western blots were carried out as previously reported.
(§4) Corresponding secondary antibodies were from Santa Cruz Biotechnology.

U-373 cells [2] = test: Acetylation of sirtuin targets by Western blot, U-373; assay type: cell-based, human; settings: U-373, 5 and 50 µM, 8 h
Procedure: as §2, §3, §4

[3] = test system: primary human CD34+ stem/progenitor cells; test: Growth and viability of primary CD34+ stem/progenitor cells; assay type: cell-based
Procedure: Figure 7 Only very high concentrations of eurochevalierine impair the growth of healthy primary human CD34^+ stem/progenitor cells. CD34^+ cells were incubated with the indicated concentrations of eurochevalierine and cell growth (a) and viability (b) were assessed after 72 h of treatment. Results correspond to the mean ± SD of three independent experiments with * and ** indicate p < 0.05 and p < 0.01 versus control.
Primary CD34^+ progenitor/stem cells were isolated from human umbilical cord blood obtained from the Clinique Bohler (Hôpitaux Robert Schuman, Luxembourg, Luxembourg) with the written informed consent of parents with the approval of the National Research Ethics Committee of Luxembourg. First, mononucleated cells were isolated by Ficoll™ (GE Healthcare, Roosendaal, The Netherlands) density gradient centrifugation. CD34^+ cells were then purified out from mononucleated cells using magnetic cell sorting following the manufacturer’s instructions (MACS Miltenyi, Utrecht, The Netherlands).
High purity CD34^+ cells were treated after 3 days of amplification in Stemline® II Hematopoietic Stem cell Expansion Medium (Sigma) supplemented with 1% antibiotic-antimycotic (BioWhittaker®, Lonza, Verviers, Belgium), 4 mM L-glutamine (BioWhittaker®), 50 ng/mL stem cell factor (ReliaTech, Wolfenbüttel, Germany), and 10 ng/mL interleukin 3 (Reliatech, Wolfenbüttel, Germany). Other cell models were cultured in RPMI1640 (BioWhittaker®) supplemented with 10% heat-inactivated fetal calf serum (BioWhittaker®) and 1% antibiotic-antimycotic. Cell lines were cultured at 37 °C in a humid atmosphere and at 5% CO2.
PBMCs and CD34^+ cells were processed through a semi-automated image-based cell analyzer (Cedex XS Innovatis, Roche, Luxembourg), which provides information about cell concentration and viability based on the Trypan Blue exclusion method.

[4] = test system: panel of cancer cell lines; design: method as in PMID 22976482; settings: read-out: mean IC50 for the growth inhibition of cancer cells; cited from earlier work

HDAC3, sequence (O15379 whole entry): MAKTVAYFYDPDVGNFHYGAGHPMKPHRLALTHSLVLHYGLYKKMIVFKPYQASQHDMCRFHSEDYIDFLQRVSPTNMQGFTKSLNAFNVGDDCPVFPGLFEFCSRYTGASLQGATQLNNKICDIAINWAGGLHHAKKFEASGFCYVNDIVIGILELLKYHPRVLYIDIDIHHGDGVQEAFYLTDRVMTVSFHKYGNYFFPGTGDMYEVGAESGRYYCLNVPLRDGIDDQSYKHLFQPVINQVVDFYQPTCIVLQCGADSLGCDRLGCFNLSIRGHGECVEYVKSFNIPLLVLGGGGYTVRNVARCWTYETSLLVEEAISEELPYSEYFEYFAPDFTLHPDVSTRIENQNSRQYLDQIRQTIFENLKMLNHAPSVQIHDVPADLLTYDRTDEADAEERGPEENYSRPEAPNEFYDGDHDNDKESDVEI
HDAC3, sequence (Q9Y618 395-489 partner limits assumed): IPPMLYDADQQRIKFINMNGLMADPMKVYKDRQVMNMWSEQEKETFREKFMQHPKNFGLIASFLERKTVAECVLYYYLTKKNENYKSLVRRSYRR
HDAC1, sequence (Q13547 whole entry): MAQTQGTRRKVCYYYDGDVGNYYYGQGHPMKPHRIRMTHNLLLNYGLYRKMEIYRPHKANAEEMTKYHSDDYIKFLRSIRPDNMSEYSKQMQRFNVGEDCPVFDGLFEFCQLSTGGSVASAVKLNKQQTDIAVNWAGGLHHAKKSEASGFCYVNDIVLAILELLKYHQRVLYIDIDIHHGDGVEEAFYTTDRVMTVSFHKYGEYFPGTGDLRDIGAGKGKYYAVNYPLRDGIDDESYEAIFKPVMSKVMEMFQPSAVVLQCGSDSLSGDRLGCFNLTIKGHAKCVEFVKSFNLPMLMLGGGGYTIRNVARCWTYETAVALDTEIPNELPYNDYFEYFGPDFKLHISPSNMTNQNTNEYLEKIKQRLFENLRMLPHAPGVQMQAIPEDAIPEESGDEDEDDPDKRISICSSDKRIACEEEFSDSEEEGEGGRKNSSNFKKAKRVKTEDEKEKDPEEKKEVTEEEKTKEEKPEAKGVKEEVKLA
HDAC2, sequence (Q92769 whole entry): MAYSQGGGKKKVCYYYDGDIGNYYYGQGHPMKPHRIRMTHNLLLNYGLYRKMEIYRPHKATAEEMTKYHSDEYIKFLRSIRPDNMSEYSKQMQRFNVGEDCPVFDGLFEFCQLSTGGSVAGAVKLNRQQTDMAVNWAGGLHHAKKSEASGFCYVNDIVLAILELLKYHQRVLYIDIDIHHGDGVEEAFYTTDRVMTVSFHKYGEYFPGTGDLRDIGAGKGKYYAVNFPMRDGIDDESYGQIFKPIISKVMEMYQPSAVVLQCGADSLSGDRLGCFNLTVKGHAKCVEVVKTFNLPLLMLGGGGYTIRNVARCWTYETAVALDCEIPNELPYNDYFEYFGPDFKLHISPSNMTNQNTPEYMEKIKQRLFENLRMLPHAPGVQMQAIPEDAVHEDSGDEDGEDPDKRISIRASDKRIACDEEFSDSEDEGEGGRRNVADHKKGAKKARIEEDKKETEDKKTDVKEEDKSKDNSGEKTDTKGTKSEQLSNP

C=C(C)[C@@H]1CC[C@@H](C)[C@@]2(O)[C@@H]1C=C(C)[C@@H](OC(C)=O)[C@@H]2OC(=O)[C@H](CC(=O)c1ccccc1NC)NC=O [Eurochevalierine, eurochevalierine]
effect on HDAC1 deacetylase activity (HDAC1): without effect
effect on HDAC2 deacetylase activity (HDAC2): without effect
induction of HDAC3 activity (HDAC3): 1.5 fold
effect on HDAC8 deacetylase activity (HDAC8): without effect
sub-G1 fraction (U-373 cells [1]): did not increase the sub-G1 fraction
sub-G1 fraction (B16-F10 cells): did not increase the sub-G1 fraction
acetylation of sirtuin targets (AcH4, AcH3K56, Ac α-tubulin) (SK-MEL-28 cells): robust and dose-dependent increase
acetylation of sirtuin targets (AcH4, AcH3K56, Ac α-tubulin) (U-373 cells [2]): robust and dose-dependent increase
impact on CD34+ cell viability ([3]; 200 µM, 72 h): minor impact on cell viability
IC50 ([3]; Homo sapiens, 72 h, read-out: IC50 growth inhibition of CD34+ cells): > 200 µM
inhibition at 200 µM ([3]; Homo sapiens, 200 µM, 72 h, read-out: maximum growth inhibition of CD34+ cells): ~30%
selectivity factor cancer cells versus normal proliferating CD34+ cells ([3]; IC50 in healthy cells (>200 µM) versus mean IC50 in cancer cells (28 µM)): > 7
IC50 [4]: 28 µM
